Converted amounts (≈) assume the structure as drawn.
Tests used:
[1] = Rat Hepatocyte Stability (Test E); format: in vitro ADME; conditions: rat, hepatocytes, geometric mean if run multiple times
How it was run: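 Run per the published AstraZeneca-type rat hepatocyte stability protocol (Wernevik et al. panel). Values are mean intrinsic clearance, Clint in μl/min/10^6 cells; geometric mean used for repeated runs.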

Solubility (Test F) = format: physicochemical; conditions: arithmetic mean if run multiple times
Protocol: The assay was conducted according to the Solubility Assay described in pages 164-167 of Wernevik, J. et al., “A Fully Integrated Assay Panel for Early Drug Metabolism and Pharmacokinetics Profiling”, Assay and Drug Development Technologies, 2020, 18(4), 157-179. Data are reported in Table 36 as solubility ([…]. Where the assay was run multiple times for the same compound, the arithmetic mean is reported.

[2] = Human Plasma Protein Binding (Test B); format: in vitro ADME; conditions: fraction unbound (fu)
Protocol: Human Plasma Protein Binding (Test B)
The assay was conducted according to the Human Plasma Protein Binding Assay described in pages 167-170 of Wernevik, J. et al., “A Fully Integrated Assay Panel for Early Drug Metabolism and Pharmacokinetics Profiling”, Assay and Drug Development Technologies, 2020, 18(4), 157-179. Data are reported in Table 36 as fraction unbound (fu) (% free). Where the assay was run multiple times for the same compound, the arithmetic mean is reported.

human RXFP1 = molecular target: T1, human RXFP1 (Homo sapiens, UniProt Q9HBX9); assay: RXFP1 Hu cAMP (Test A); format: cell-based; set-up: expressed in transfected cells; host or cells: Jump-In T-REx CHO-K1 cells (ThermoFisher), induced with 10 ng/ml doxycycline for 24 h; conditions: RXFP1 Hu cAMP; for EC50: read-out: Test A EC50
T1 sequence (Q9HBX9 1-757): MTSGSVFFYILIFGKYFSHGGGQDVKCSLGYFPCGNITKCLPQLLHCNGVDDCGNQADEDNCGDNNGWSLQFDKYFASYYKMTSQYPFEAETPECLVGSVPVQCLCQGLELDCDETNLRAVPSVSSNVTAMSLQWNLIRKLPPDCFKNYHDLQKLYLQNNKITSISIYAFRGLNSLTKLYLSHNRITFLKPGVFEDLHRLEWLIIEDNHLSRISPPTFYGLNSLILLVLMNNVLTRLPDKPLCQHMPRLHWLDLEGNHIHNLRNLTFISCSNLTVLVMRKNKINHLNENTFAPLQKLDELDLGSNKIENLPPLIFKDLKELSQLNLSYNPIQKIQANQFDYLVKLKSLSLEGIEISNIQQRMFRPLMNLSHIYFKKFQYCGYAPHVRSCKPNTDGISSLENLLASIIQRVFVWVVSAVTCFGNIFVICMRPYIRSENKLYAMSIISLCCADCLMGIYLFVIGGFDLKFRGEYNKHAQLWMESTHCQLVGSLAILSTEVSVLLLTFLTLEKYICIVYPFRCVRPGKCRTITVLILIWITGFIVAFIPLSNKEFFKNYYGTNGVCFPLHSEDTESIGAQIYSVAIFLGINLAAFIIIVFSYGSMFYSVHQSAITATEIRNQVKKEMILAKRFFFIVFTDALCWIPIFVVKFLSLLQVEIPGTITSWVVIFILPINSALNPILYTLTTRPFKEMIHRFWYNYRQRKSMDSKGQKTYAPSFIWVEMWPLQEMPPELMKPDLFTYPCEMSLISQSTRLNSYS
How it was run: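 Read-out is HTRF signal, inversely proportional to cAMP, converted to cAMP amount by standard curve. Stimulation occurred in inducible CHO-K1 cells expressing the human receptor with phosphodiesterases blocked by 0.5 mM IBMX.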

[3] = Human Liver Microsomal Stability (Test C); format: in vitro ADME; conditions: human, liver microsomes
How it was run: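 Human liver microsome incubation per the Wernevik et al. integrated DMPK panel protocol. Intrinsic clearance reported as CLint in μl/min/mg protein, averaged arithmetically over repeat runs.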

| Structure (SMILES) | hepatocyte CLint [1] [µL/min/1e6 cells] | solubility (Solubility (Test F)) [µM] | Test B Human Plasma Protein Binding (% free) [2] [% free] | Test A Sinf (human RXFP1) [%] | microsomal CLint [3] [µL/min/mg] | EC50 (human RXFP1) [nM] |
| --- | --- | --- | --- | --- | --- | --- |
| COc1cc(F)c(-c2ccc(/C=C/C(=O)O)nc2)cc1C(=O)N[C@@H]1[C@H]2CC[C@H](C2)[C@@H]1C(=O)Nc1cccc(S(=O)(=O)C(F)(F)F)c1 [Example 260, (E)-3-(5-(2-Fluoro-4-methoxy-5-(((1S,2R,3S,4R)-3-((3-((trifluoromethyl)sulfonyl)phenyl)carbamoyl)bicyclo[2.2.1]heptan-2-yl)carbamoyl)phenyl)pyridin-2-yl)acrylic acid] | 69 | 360 (≈ 238 µg/mL) | 0.57 | 108 | 69 | – |
| COc1cc(F)c(O[C@H]2CC[C@@H](C(=O)O)CC2)cc1C(=O)N[C@@H]1[C@H]2CC[C@H](C2)[C@@H]1C(=O)Nc1c(F)cccc1F [Example 184, (1S,4s)-4-(5-(((1S,2R,3S,4R)-3-((2,6-Difluorophenyl)carbamoyl)bicyclo[2.2.1]heptan-2-yl)carbamoyl)-2-fluoro-4-methoxyphenoxy)cyclohexane-1-carboxylic acid] | 70 | > 1000 | 8.6 | – | 7.4 | > 40000 |
| COc1cc(F)c(O[C@H]2CC[C@@H](C(=O)O)CC2)cc1C(=O)N[C@@H]1[C@H]2CC[C@H](C2)[C@@H]1C(=O)Nc1ccc(S(F)(F)(F)(F)F)cc1 [Example 183] | 13 | 50 (≈ 32.5 µg/mL) | 0.50 | 99 | 23 | 420 |
| COc1cc(F)c(O[C@H]2CC[C@@](C)(C(=O)O)CC2)cc1C(=O)N[C@@H]1CCC[C@@H]1C(=O)NCC1(CF)CC1 [Example 56, (1S,4s)-4-(2-Fluoro-5-(((1R,2S)-2-(((1-(fluoromethyl)cyclopropyl)methyl)carbamoyl)cyclopentyl)carbamoyl)-4-methoxyphenoxy)-1-methylcyclohexane-1-carboxylic acid] | 17 | 980 (≈ 512 µg/mL) | 21 | 105 | < 3 | 12000 |
| COc1cc(F)c(O[C@H]2CC[C@@](F)(C(=O)O)CC2)cc1C(=O)N[C@@H]1[C@H]2CC[C@H](C2)[C@@H]1C(=O)Nc1cccc(S(=O)(=O)C(F)(F)F)c1 [Example 416] | 10 | > 1000 | 1.2 | 103 | 9.9 | 320 |
| COc1cc(F)c(-c2ccc(C(N)=O)cc2)cc1C(=O)N[C@@H]1[C@H]2CC[C@H](C2)[C@@H]1C(=O)Nc1cccc(S(=O)(=O)C(F)(F)F)c1 [Example 434, 6-Fluoro-4-methoxy-N3-((1S,2R,3S,4R)-3-((3-((trifluoromethyl)sulfonyl)phenyl)carbamoyl)bicyclo[2.2.1]heptan-2-yl)-[1,1′-biphenyl]-3,4′-dicarboxamide] | 13 | 130 (≈ 82.4 µg/mL) | <0.36 | 82 | 110 | 590 |
| COc1cc(F)c(O[C@H]2CC[C@@](C)(C(=O)O)CC2)cc1C(=O)Nc1cc2ccccc2cc1C(=O)NCC1(C)CCC1 [Example 215, (1s,4s)-4-(2-Fluoro-4-methoxy-5-((3-(((1-methylcyclobutyl)methyl)carbamoyl)naphthalen-2-yl)carbamoyl)phenoxy)-1-methylcyclohexane-1-carboxylic acid] | 20 | < 0.23 | 0.20 | 143 | < 3 | 200 |
| COc1cc(F)c(-c2cccc(CCC(=O)O)c2)cc1C(=O)N[C@H]1[C@@H](C(=O)Nc2cccc(S(=O)(=O)C(F)(F)F)c2)[C@@H]2C=C[C@H]1C2 (racemic) [Example 282] | 12 | 48 (≈ 31.7 µg/mL) | <0.25 | 105 | 6.2 | 490 |
| COc1cc(F)c(-c2ccc(OCC(=O)O)cc2)cc1C(=O)N[C@@H]1[C@H]2CC[C@H](C2)[C@@H]1C(=O)Nc1cccc(S(=O)(=O)C(F)(F)F)c1 [Example 257, 2-((2′-Fluoro-4′-methoxy-5′-(((1S,2R,3S,4R)-3-((3-((trifluoromethyl)sulfonyl)phenyl)carbamoyl)bicyclo[2.2.1]heptan-2-yl)carbamoyl)-[1,1′-biphenyl]-4-yl)oxy)acetic acid] | 9.5 | > 1000 | 0.35 | 96 | 16 | 59 |

Now from value to molecule:

| hepatocyte CLint [1] [µL/min/1e6 cells] | solubility (Solubility (Test F)) [µM] | Test B Human Plasma Protein Binding (% free) [2] [% free] | Test A Sinf (human RXFP1) [%] | microsomal CLint [3] [µL/min/mg] | EC50 (human RXFP1) [nM] | Structure (SMILES) |
| --- | --- | --- | --- | --- | --- | --- |
| 22 | 130 (≈ 79.4 µg/mL) | 0.72 | 111 | 22 | 110 | COc1cc(F)c(O[C@H]2CC[C@@H](C(=O)O)CC2)cc1C(=O)N[C@@H]1[C@H]2CC[C@H](C2)[C@@H]1C(=O)Nc1cc(F)cc(C(F)(F)F)c1 [Example 29] |
| 26 | 610 (≈ 338 µg/mL) | 4.4 | 124 | 40 | 33 | CCC(CC)CNC(=O)[C@H]1[C@@H]2CC[C@@H](C2)[C@H]1NC(=O)c1cc(O[C@H]2CC[C@@](C)(C(=O)O)CC2)c(C#N)cc1OC [Example 88] |
| 19 | 340 (≈ 197 µg/mL) | 4 | 112 | 160 | 15 | COc1cc(C#N)c(O[C@H]2CC[C@@](C)(C(=O)O)CC2)cc1C(=O)N[C@@H]1[C@H]2CC[C@H](C2)[C@@H]1C(=O)NCC1C(C)(C)C1(C)C [Example 84] |
| 9.6 | 920 (≈ 482 µg/mL) | 30 | 100 | < 3 | > 4600 | COc1cc(C#N)c(O[C@H]2CC[C@@](C)(C(=O)O)CC2)cc1C(=O)N[C@@H]1[C@H]2CC[C@H](C2)[C@@H]1C(=O)NC1(C)CC1 [Example 100] |
| 64 | 850 (≈ 505 µg/mL) | 2.7 | 107 | 23 | 410 | COc1cc(F)c(O[C@H]2CC[C@@H](C(=O)O)CC2)cc1C(=O)N[C@@H]1[C@H]2CC[C@H](C2)[C@@H]1C(=O)Nc1ccnc(C(F)(F)F)c1 [Example 12, (1S,4s)-4-(2-Fluoro-4-methoxy-5-(((1S,2R,3S,4R)-3-((2-(trifluoromethyl)pyridin-4-yl)carbamoyl)bicyclo[2.2.1]heptan-2-yl)carbamoyl)phenoxy)cyclohexane-1-carboxylic acid] |
| 34 | 890 (≈ 534 µg/mL) | 0.94 | 108 | 13 | – | COc1cc(F)c(O[C@H]2CC[C@@](C)(C(=O)O)CC2)cc1C(=O)N[C@@H]1COC[C@@H]1C(=O)Nc1ccc(F)c(C(F)(F)F)c1 [Example 52, (1R,4s)-4-(2-fluoro-5-(((3S,4R)-4-((4-fluoro-3-(trifluoromethyl)phenyl)carbamoyl)tetrahydrofuran-3-yl)carbamoyl)-4-methoxyphenoxy)-1-methylcyclohexane-1-carboxylic acid] |
| 10 | 920 (≈ 522 µg/mL) | 26 | – | < 3 | > 5000 | COc1cc(C#N)c(O[C@H]2CC[C@@](C)(C(=O)O)CC2)cc1C(=O)N[C@@H]1[C@H]2CC[C@H](C2)[C@@H]1C(=O)NCC1(O)CCCC1 [Example 74] |
